“And” between values parts separate entries of the source, which are not always exact repeats. Equal values may be shown once. Read-outs that look alike come from different tables or passages of the source.
Key:
[1] = test system: all 3 PKD isoforms; settings: cited from earlier work
[2] = cited from earlier work
[3] = test system: PC-3 human androgen independent prostate cancer cells; test: MTT assay, in vitro cytotoxicity; assay type: cell-based; settings: PC-3, 72 h
[4] = test system: PANC-1 pancreatic cancer cells; test: MTT assay, in vitro cytotoxicity; assay type: cell-based, human; settings: PANC-1, 72 h
[5] = test system: CFPAC-1 pancreatic cancer cells; test: MTT assay, in vitro cytotoxicity; assay type: cell-based, human; settings: CFPAC-1, 72 h
[6] = test system: PC-3 xenografts; test: Efficacy study in mice bearing PC-3 xenografts; assay type: in vivo, C.B.-17 SCID mice; settings: 25 mg/kg/day iv qdx5, PC-3 xenografts
[7] = assay type: in vivo, C.B.-17 SCID mice
[8] = Partial mass balance of kb-NB142-70; assay type: in vivo, mouse; settings: 5 min
[9] = Plasma protein binding, Rapid Equilibrium Dialysis; assay type: in vitro ADME
[10] = β-glucuronidase treatment of urine; assay type: in vitro ADME, mice; settings: 0-6 h urine, 37 °C, 24 h, 10,000 units
[11] = test system: PC-3 human androgen-independent prostate cancer cells; settings: PC-3 ref 34; cited from earlier work
[12] = Urinary and fecal excretion; settings: for metabolite excreted in urine, % of dose: assuming equivalent UV absorption
[13] = test system: CFPAC-1 xenografts; test: Efficacy study in mice bearing CFPAC-1 xenografts; assay type: in vivo, C.B.-17 SCID mice
[14] = test system: PANC-1 pancreatic cancer xenograft; settings: po 80 mg/kg qd × 21 ref 31; cited from earlier work
[15] = day 6, 50 mg/kg q3dx3, CFPAC-1 xenografts

For `O=C1NCCCc2c1oc1ccc(O)cc21` [CID755673, reference compound], the IC50 ([1]; against all 3 PKD isoforms ref 33) is given as 0.2 to 0.3 µM.

In the case of `COc1ncc2sc3c(c2n1)SCCNC3=O` [kmg-NB4-23], the aqueous solubility [2] is listed as “poor”.

Compound `O=C1NCCSc2c1sc1ccc(O)cc21` [kb-NB142-70] has an IC50 [3] of 21 ± 6 µM, an IC50 [4] of 34 ± 7 µM and an IC50 [5] of 5.2 ± 0.1 µM. The “effect on the growth of the tumor xenografts” value [6] was “no effect”, the “toxicity or changes in body weights” value [6] was “did not result in any toxicity or changes in the body weights” and the “AUC0→∞ Brain” value ([7]; 25 mg/kg iv) was 85 nmol·min/g. The “AUC0→∞ Fat” value ([7]; 25 mg/kg iv) was 1681 nmol·min/g, the “AUC0→∞ Heart” value ([7]; 25 mg/kg iv) was 236 nmol·min/g and the “AUC0→∞ Kidney” value ([7]; 25 mg/kg iv) was 1712 nmol·min/g. For the same compound, the “AUC0→∞ Liver” value ([7]; 25 mg/kg iv) was 266 nmol·min/g, the “AUC0→∞ Lung” value ([7]; 25 mg/kg iv) was 377 nmol·min/g and the “AUC0→∞ Plasma” value ([7]; 25 mg/kg iv) was 409 nmol·min/mL. The “AUC0→∞ RBC” value ([7]; 25 mg/kg iv) was 288 nmol·min/mL, the “AUC0→∞ Skeletal Muscle” value ([7]; 25 mg/kg iv) was 748 nmol·min/g and the “AUC0→∞ Spleen” value ([7]; 25 mg/kg iv) was 288 nmol·min/g. The “AUC0→∞ Tumor” value ([7]; 25 mg/kg iv) was 731 nmol·min/g, the AUC for plasma ([7]; 25 mg/kg iv) was 409 nmol·min/mL and the AUC for tumor ([7]; 25 mg/kg iv) was 731 nmol·min/mg. For the same compound, the AUC in fat ([7]; 25 mg/kg iv) was 1681 nmol·min/g, the clearance ([7]; 25 mg/kg iv) was 243 mL/min/kg and the plasma half-life ([7]; 25 mg/kg iv) was 6 min. For the same compound, the volume of distribution ([7]; 25 mg/kg iv) was “approximately 2744 mL/kg”, the “kidney Cmax” value ([7]; 25 mg/kg iv, at 5 min) was 63 nmol/g and the “lung Cmax” value ([7]; 25 mg/kg iv, at 5 min) was 27 nmol/g. For the same compound, the “PC-3 xenograft (tumor) Cmax” value ([7]; 25 mg/kg iv, observed at 10 min) was 11.8 nmol/g and 12 nmol/g, the “blood brain barrier crossing” value ([7]; 25 mg/kg iv, brain concentrations lower than plasma) was “appeared to cross the blood brain barrier” and the Brain concentration ([7]; 5 min after 25 mg/kg iv) was 6.34 ± 1.72 nmol/g. It also gave a Fat concentration ([7]; 5 min after 25 mg/kg iv) of 9.92 ± 0.52 nmol/g, a Heart concentration ([7]; 5 min after 25 mg/kg iv) of 14.5 ± 2.0 nmol/g and a Kidney concentration ([7]; 5 min after 25 mg/kg iv) of 63.4 ± 13.7 nmol/g. The Liver concentration ([7]; 5 min after 25 mg/kg iv) was 23.4 ± 1.1 nmol/g, the Lung concentration ([7]; 5 min after 25 mg/kg iv) was 26.8 ± 3.3 nmol/g and the Plasma concentration ([7]; 5 min after 25 mg/kg iv) was 36.9 ± 8.3 µM. The RBC concentration ([7]; 5 min after 25 mg/kg iv) was 23.6 ± 1.7 nmol/mL, the “Skeletal Muscle concentration” value ([7]; 5 min after 25 mg/kg iv) was 18.4 ± 4.6 nmol/g and the Spleen concentration ([7]; 5 min after 25 mg/kg iv) was 21.2 ± 3.8 nmol/g. For the same compound, the Tumor concentration ([7]; 5 min after 25 mg/kg iv) was 5.62 ± 1.63 nmol/g, the Brain concentration ([7]; 10 min after 25 mg/kg iv) was 5.07 ± 0.57 nmol/g and the Fat concentration ([7]; 10 min after 25 mg/kg iv) was 8.93 ± 1.71 nmol/g. For the same compound, the Heart concentration ([7]; 10 min after 25 mg/kg iv) was 13.1 ± 2.5 nmol/g, the Kidney concentration ([7]; 10 min after 25 mg/kg iv) was 48.9 ± 15.8 nmol/g and the Liver concentration ([7]; 10 min after 25 mg/kg iv) was 6.41 ± 0.56 nmol/g. It also gave a Lung concentration ([7]; 10 min after 25 mg/kg iv) of 16.7 ± 1.2 nmol/g, a Plasma concentration ([7]; 10 min after 25 mg/kg iv) of 23.4 ± 7.4 µM and an RBC concentration ([7]; 10 min after 25 mg/kg iv) of 13.2 ± 2.7 nmol/mL. The “Skeletal Muscle concentration” value ([7]; 10 min after 25 mg/kg iv) was 15.5 ± 4.0 nmol/g, the Spleen concentration ([7]; 10 min after 25 mg/kg iv) was 12.6 ± 2.5 nmol/g and the Tumor concentration ([7]; 10 min after 25 mg/kg iv) was 11.8 ± 4.0 nmol/g. The Brain concentration ([7]; 15 min after 25 mg/kg iv) was 2.40 ± 0.40 nmol/g, the Fat concentration ([7]; 15 min after 25 mg/kg iv) was 6.65 ± 0.74 nmol/g and the Heart concentration ([7]; 15 min after 25 mg/kg iv) was 6.23 ± 1.96 nmol/g. The Kidney concentration ([7]; 15 min after 25 mg/kg iv) was 27.0 ± 12.4 nmol/g, the Liver concentration ([7]; 15 min after 25 mg/kg iv) was 8.41 ± 0.29 nmol/g and the Lung concentration ([7]; 15 min after 25 mg/kg iv) was 10.4 ± 4.9 nmol/g. For the same compound, the Plasma concentration ([7]; 15 min after 25 mg/kg iv) was 10.3 ± 3.7 µM, the RBC concentration ([7]; 15 min after 25 mg/kg iv) was 6.94 ± 2.26 nmol/mL and the “Skeletal Muscle concentration” value ([7]; 15 min after 25 mg/kg iv) was 9.45 ± 2.47 nmol/g. For the same compound, the Spleen concentration ([7]; 15 min after 25 mg/kg iv) was 8.03 ± 3.39 nmol/g, the Tumor concentration ([7]; 15 min after 25 mg/kg iv) was 5.22 ± 3.60 nmol/g and the Brain concentration ([7]; 30 min after 25 mg/kg iv) was 0.84 ± 0.11 nmol/g. It also gave a Fat concentration ([7]; 30 min after 25 mg/kg iv) of 2.80 ± 0.45 nmol/g, a Heart concentration ([7]; 30 min after 25 mg/kg iv) of 2.60 ± 0.53 nmol/g and a Kidney concentration ([7]; 30 min after 25 mg/kg iv) of 10.1 ± 2.0 nmol/g. It also gave a Lung concentration ([7]; 30 min after 25 mg/kg iv) of 2.95 ± 1.69 nmol/g, a Plasma concentration ([7]; 30 min after 25 mg/kg iv) of 2.0 ± 1.9 µM and an RBC concentration ([7]; 30 min after 25 mg/kg iv) of 2.31 ± 1.70 nmol/mL. For the same compound, the “Skeletal Muscle concentration” value ([7]; 30 min after 25 mg/kg iv) was 2.28 ± 0.56 nmol/g, the Tumor concentration ([7]; 30 min after 25 mg/kg iv) was 4.22 ± 1.92 nmol/g and the Fat concentration ([7]; 60 min after 25 mg/kg iv) was 2.62 ± 1.35 nmol/g. The Kidney concentration ([7]; 60 min after 25 mg/kg iv) was 2.87 ± 0.56 nmol/g, the “Skeletal Muscle concentration” value ([7]; 60 min after 25 mg/kg iv) was 1.05 ± 0.02 nmol/g and the Tumor concentration ([7]; 60 min after 25 mg/kg iv) was 1.24 ± 0.95 nmol/g. The Fat concentration ([7]; 120 min after 25 mg/kg iv) was 0.77 ± 0.13 nmol/g, the Kidney concentration ([7]; 120 min after 25 mg/kg iv) was 3.76 ± 0.82 nmol/g and the “Skeletal Muscle concentration” value ([7]; 120 min after 25 mg/kg iv) was 0.95 ± 0.01 nmol/g. For the same compound, the Tumor concentration ([7]; 120 min after 25 mg/kg iv) was 0.79 ± 0.32 nmol/g, the Fat concentration ([7]; 240 min after 25 mg/kg iv) was 0.45 ± 0.06 nmol/g and the Kidney concentration ([7]; 240 min after 25 mg/kg iv) was 1.78 ± 0.29 nmol/g. The “Skeletal Muscle concentration” value ([7]; 240 min after 25 mg/kg iv) was 1.00 ± 0.01 nmol/g, the Tumor concentration ([7]; 240 min after 25 mg/kg iv) was 0.57 ± 0.60 nmol/g and the Fat concentration ([7]; 360 min after 25 mg/kg iv) was 0.36 ± 0.03 nmol/g. The “Skeletal Muscle concentration” value ([7]; 360 min after 25 mg/kg iv) was 0.97 ± 0.06 nmol/g, the Tumor concentration ([7]; 360 min after 25 mg/kg iv) was 1.21 ± 0.78 nmol/g and the Fat concentration ([7]; 960 min after 25 mg/kg iv) was 0.85 ± 0.42 nmol/g. For the same compound, the Fat concentration ([7]; 1440 min after 25 mg/kg iv) was 0.44 ± 0.07 nmol/g, the Cmax ([7]; read-out: Plasma Cmax, 25 mg/kg iv, observed at 5 min) was 36.9 µM and 37 µM and the “administered dose detectable in plasma and collected tissues as parent compound” value [8] was 12.5%. The “total administered dose detectable in plasma and collected tissues” value ([8]; parent plus metabolite) was 13.6 % of the dose, the plasma protein bound ([9]; 0.3 μg/mL) was 78% and the plasma protein bound ([9]; 3 μg/mL) was 78%. For the same compound, the “increase in parent on incubation of urine with β-glucuronidase” value [10] was ~ 410%, the “potency relative to CID755673” value [1] was no less than 2 fold and the EC50 [11] was 8 µM. For the same compound, the “urinary excretion of parent, % of dose” value ([12]; 0-6 h urine) was 2.5%, the “metabolite excreted in urine, % of dose” value ([12]; 0-6 h urine) was “approximately 7.6%” and the “urinary excretion of parent, % of dose” value ([12]; 6-24 h urine) was 0.1%. For the same compound, the “metabolite excreted in urine, % of dose” value ([12]; 6-24 h urine) was roughly 1.2% and the “fecal excretion, % of dose” value ([12]; mouse, in vivo) was 0.67%.

For `Nc1ccn([C@@H]2O[C@H](CO)[C@@H](O)C2(F)F)c(=O)n1` [gemcitabine], the tumor doubling time ([13]; 50 mg/kg q3dx3, CFPAC-1 xenografts, control 2.2 days) was 10.4 days, the “T/C of mean tumor volume” value [13, 15] was 22% and the mean tumor volume [13, 15] was 335 mm^3.

In the case of `CC[C@@H](N)CNc1ccnc(-c2cc(-c3cnn(C)c3)ccc2O)n1.Cl.Cl` [CRT0066101], the “growth of PANC-1 xenograft” value [14] is listed as “slowed the growth”.

Source: publication PMC3557573 (Cancer chemotherapy and pharmacology, 2012)
